Assay results taken from PubChem BioAssay AID463229 (Broad Institute, 2010).
Activity calls are given as the source filed them.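 The calls were made as follows: active = compounds raising the signal whose fitted half-maximal concentration is at or below their top tested dose (cut at about 25 µM in these data); inconclusive = flat fit at 30 to 70% activity, or a poor fit; inactive = the rest.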

What follows are compounds tested on INS-1E rat beta cells, no cytokines, CellTiter-Glo ATP, 48 h (assay: ATP level change in INS-1E without cytokines, dose response, counter-screen for beta-cell apoptosis protection project, INS-1E rat cells, ATP luminescence, cherry pick (AID 463229)).

Row | SMILES | AC50
1 | Nc1c(Cl)ncnc1N/N=C/c1ccc2ccccc2n1 | 4.38 µM
2 | Cc1ccc(NC(=O)Cc2nn(C)c(=O)c3ccccc23)cc1F | 6.97 µM
3 | COc1cc2cc(C(=O)N3CCOCC3)cc(-c3ccc(C)cc3)c2cc1OC | 5.15 µM
4 | O=C(NCC1COc2ccccc2O1)c1cccc(S(=O)(=O)NCc2ccccc2)c1 (stereo not drawn) | 8.8 µM
5 | CCN(CC)CCn1c2ccccc2c2cnc(N)c(C#N)c21 | 14.3 µM
6 | CC(NC(=O)c1cc(COc2ccc3ncccc3c2)on1)c1ccc(F)cc1 (stereo not drawn) | 5.86 µM
7 | COc1cnc(-c2ccccn2)nc1NC(C)C | 17.2 µM
8 | CCC(=O)NC(c1ccc(C)cc1)c1cc(Cl)c2cccnc2c1O (stereo not drawn) | 7.97 µM
9 | C=C[C@H](CC(C)C)N(Cc1ccccc1)S(=O)(=O)N(Cc1ccc(OC)cc1)[C@H](C=C)CC(C)C | 5.73 µM
10 | O=C(/C=C/c1ccccc1)NC(=S)NNC(=O)c1cnccn1 | 5.91 µM
11 | O=C(N/N=C\c1cc(Cl)ccc1O)c1ccc(S(=O)(=O)N2CCCCC2)cc1 | 6.44 µM
12 | S=C(NCCCN1CCOCC1)N1CCN(c2nc(-c3ccc(Cl)cc3)cs2)CC1 | 12.9 µM
13 | Cc1ccc(NC(=O)C2=C(c3ccccc3)S(=O)(=O)CCS2(=O)=O)cc1 | 12.6 µM
14 | O=C(Nc1cc(Sc2ccccn2)cc([N+](=O)[O-])c1)c1cccc(F)c1 | 8.51 µM
15 | COc1ccc(-c2cc(-c3ccccc3)[n+](C)c(-c3ccccc3)c2)cc1 | 4.28 µM
16 | COc1ccc(-c2n(Cc3ccccc3)c3ccccc3[n+]2Cc2ccccc2)cc1 | 3.95 µM
17 | Cc1cc(-c2ccccc2)cc(-c2ccccc2)[n+]1CCc1ccccc1 | < 0.195 µM
18 | Nc1c(C(=O)Nc2ccc3c(c2)OCCO3)nnn1Cc1ccccc1Cl | 5.53 µM
19 | Cn1c(-c2ccccc2)cc2c3no[n+]([O-])c3ccc21 | 7.82 µM
20 | Cn1nccc1C(=O)N/N=C/c1c(O)ccc2ccccc12 | 3.54 µM
21 | O=C(N/N=C/c1ccccc1O)/C(=C/c1ccccc1)CCO | 7.67 µM
22 | COc1cc(N/N=C/c2ccccc2O)ncn1 | 16.2 µM
23 | C#CCOCCOCCOCCNc1nc(N2CCN(C(=O)CCCCCCCCCCNC(=O)[C@H](CCCCN)n3cc(C)nn3)CC2)nc(N2CCN(C(=O)CCCCCCCCCCNC(=O)[C@@H]([C@H](C)CC)n3cc(CCCCCN)nn3)CC2)n1 | 6.78 µM
24 | O=C(N/N=C(\c1ccccc1)c1cccnc1)c1cccc(F)c1 | 2.56 µM
25 | CC(C)(C)c1cnnn1-c1ccc(/C=N/Nc2ccc([N+](=O)[O-])cc2)cc1 | 7.77 µM
26 | Cn1c(NN=O)nc2ccccc21 | 4.08 µM
27 | Cc1ccc(Cn2c(=N)n(CC(=O)c3ccccc3)c3ccccc32)cc1 | 9.12 µM

Row | SMILES | AC50
28 | Cn1nc(-c2ccc(Cl)cc2)nc2c(=O)n(C)c(=O)nc1-2 | 0.508 µM
29 | CN(C)S(=O)(=O)c1ccc(Oc2ccc(S(=O)(=O)N(C)C)cc2)cc1 | 9.29 µM
30 | C#CCOCCOCCOCCNc1nc(N2CCN(C(=O)CCCCCCCCCCNC(=O)[C@H](CCCCN)n3cc(C[C@@H](C)CC)nn3)CC2)nc(N2CCN(C(=O)CCCCCCCCCCNC(=O)[C@@H]([C@H](C)O)n3cc(C)nn3)CC2)n1 | 6.91 µM
31 | Cc1c(C(=O)N(Cc2ccccc2)C(C)C)oc2ccc(S(=O)(=O)N3CCOCC3)cc12 | > 26 µM (inactive)
32 | CC(=O)NC(c1ccc(C(C)C)cc1)c1ccc2cccnc2c1O (stereo not drawn) | 1.98 µM
33 | c1ccc(N2CCN(c3nc(-c4ccccn4)nc4ccccc34)CC2)cc1 | 14.9 µM
34 | Cc1ccc(C2=CC(c3ccc(N(C)C)cc3)n3nnnc3N2)cc1 (stereo not drawn) | 6.72 µM
35 | C/C(=N\NC(=O)c1cc(C2CC2)nc2ccccc12)c1ccc(O)cc1O | 5.61 µM
36 | O=C(N/N=C/c1cc(Br)ccc1OC(=O)c1ccc(Br)cc1)c1ccncc1 | 6.01 µM
37 | C/C(=N\Nc1nc2ccccc2[nH]1)c1ccccn1 | 0.56 µM
38 | CC1CCC(C(C)C)C(OC(=O)Cn2c(COc3ccccc3)[n+](C)c3ccccc32)C1 (stereo not drawn) | 7.08 µM
39 | O=C(N/N=C/c1ccc(O)cc1O)c1ccc(NC(=O)C2CCCCC2)cc1 | 13 µM
40 | O=C(c1cc(COc2ccc3ncccc3c2)on1)N1CCCCCC1 | 8.02 µM
41 | Cc1sc2ncnc(NC3CCN(Cc4ccccc4)CC3)c2c1C | 5.11 µM
42 | c1ccc(-c2csc3ncnc(NCC4COc5ccccc5O4)c23)cc1 (stereo not drawn) | 2.79 µM
43 | CCOc1ccc(C(=O)N/N=C(\c2ccccc2)c2ccccn2)cc1 | 4.89 µM
44 | O=C(N/N=C/c1c(O)ccc2ccccc12)c1ccc(Br)o1 | 4.83 µM
45 | Cc1cc(C(C)(C)C)cc(C)c1C[n+]1ccc2ccccc2c1 | 1.74 µM
46 | CC(=O)NC(c1cccs1)c1cc(F)c2cccnc2c1O (stereo not drawn) | 6.05 µM
47 | CC(C)Cn1c(SCC(=O)N2CCc3ccccc3C2)nc2cc(Cl)ccc2c1=O | 6.5 µM
48 | O=C(Nc1cccc(NC(=O)c2cc([N+](=O)[O-])ccc2Cl)n1)c1cc([N+](=O)[O-])ccc1Cl | 14.8 µM
49 | COc1ccc(C(C(=O)NC2CCCCC2)N(C(=O)CCl)c2cccc(Cl)c2)cc1 (stereo not drawn) | 7.03 µM
50 | Oc1ccc(-[n+]2c(-c3ccccc3)cc(-c3ccccc3)cc2-c2ccccc2)cc1 | 3.96 µM
51 | CN(Cc1c(F)cccc1Cl)C(=O)c1cc2ccccc2o1 | > 26 µM (inactive)
52 | COc1ccc(C)cc1Nc1n[n+](-c2ccccc2)c(-c2c(Cl)cccc2Cl)s1 | 4.15 µM
53 | Oc1cc(-c2ccc(N3CCCCC3)nc2)cc2cccnc12 | 7.31 µM
